This series has as its target T1, hERG channel (Homo sapiens, UniProt Q12809).
T1 construct: expressed in transfected cells; host or cells: CHO (Chinese hamster ovary)
Put plainly: hERG channel inhibition assay (patch-clamp, CHO hERG cells). Type of series: cell-based. The settings on record: for pIC50 / IC20: CHO hERG cells, whole-cell patch-clamp; for IC20: human, CHO cells stably expressing hERG; for hERG IC20 / TLR8 IC50 / hERG IC20 / TLR7 IC50 / hERG IC20 / TLR9 IC50: safety ratio; for hERG IC20 / TLR7 IC50: TLR7 IC50 of ER compounds from Table 1; for hERG IC20 / TLR9 IC50: TLR9 IC50 of ER compounds from Table 1. As for the experimental part:
The hERG K^+ channels were cloned in humans and stably expressed in a CHO (Chinese hamster ovary) cell line. CHOhERG cells were used for patch-clamp (voltage-clamp, whole-cell) experiments. Cells were stimulated by a voltage pattern to activate hERG channels and conduct IKhERG currents (rapid delayed outward rectifier potassium current of the hERG channel). After the cells were stabilized for a few minutes, the amplitude and kinetics of IKhERG were recorded at a stimulation frequency of 0.1 Hz (6 bpm). Thereafter, the test compound was added to the preparation at increasing concentrations. For each concentration, an attempt was made to reach a steady-state effect, usually, this was achieved within 3-10 min at which time the next highest concentration was applied. The amplitude and kinetics of IKhERG are recorded in each concentration of the drug which were compared to the control values (taken as 100%). (references: Redfern WS, Carlsson L, Davis AS, Lynch WG, MacKenzie I, Palethorpe S, Siegl PK, Strang I, Sullivan AT, Wallis R, Camm AJ, Hammond TG. 2003; Relationships between preclinical cardiac electrophysiology, clinical QT interval prolongation and torsade de pointes for a broad range of drugs: evidence for a provisional safety margin in drug development. Cardiovasc. Res. 58:32-45, Sanguinetti MC, Tristani-Firouzi M. 2006; hERG potassium channels and cardiac arrhythmia. Nature 440:463-469, Webster R, Leishman D, Walker D. 2002; Towards a drug concentration effect relationship for QT prolongation and torsades de pointes. Curr. Opin. Drug Discov. Devel. 5:116-26).
Table 3. hERG and safety ratio results

pIC50: −log10 of the molar value.

T1 sequence (Q12809 whole entry): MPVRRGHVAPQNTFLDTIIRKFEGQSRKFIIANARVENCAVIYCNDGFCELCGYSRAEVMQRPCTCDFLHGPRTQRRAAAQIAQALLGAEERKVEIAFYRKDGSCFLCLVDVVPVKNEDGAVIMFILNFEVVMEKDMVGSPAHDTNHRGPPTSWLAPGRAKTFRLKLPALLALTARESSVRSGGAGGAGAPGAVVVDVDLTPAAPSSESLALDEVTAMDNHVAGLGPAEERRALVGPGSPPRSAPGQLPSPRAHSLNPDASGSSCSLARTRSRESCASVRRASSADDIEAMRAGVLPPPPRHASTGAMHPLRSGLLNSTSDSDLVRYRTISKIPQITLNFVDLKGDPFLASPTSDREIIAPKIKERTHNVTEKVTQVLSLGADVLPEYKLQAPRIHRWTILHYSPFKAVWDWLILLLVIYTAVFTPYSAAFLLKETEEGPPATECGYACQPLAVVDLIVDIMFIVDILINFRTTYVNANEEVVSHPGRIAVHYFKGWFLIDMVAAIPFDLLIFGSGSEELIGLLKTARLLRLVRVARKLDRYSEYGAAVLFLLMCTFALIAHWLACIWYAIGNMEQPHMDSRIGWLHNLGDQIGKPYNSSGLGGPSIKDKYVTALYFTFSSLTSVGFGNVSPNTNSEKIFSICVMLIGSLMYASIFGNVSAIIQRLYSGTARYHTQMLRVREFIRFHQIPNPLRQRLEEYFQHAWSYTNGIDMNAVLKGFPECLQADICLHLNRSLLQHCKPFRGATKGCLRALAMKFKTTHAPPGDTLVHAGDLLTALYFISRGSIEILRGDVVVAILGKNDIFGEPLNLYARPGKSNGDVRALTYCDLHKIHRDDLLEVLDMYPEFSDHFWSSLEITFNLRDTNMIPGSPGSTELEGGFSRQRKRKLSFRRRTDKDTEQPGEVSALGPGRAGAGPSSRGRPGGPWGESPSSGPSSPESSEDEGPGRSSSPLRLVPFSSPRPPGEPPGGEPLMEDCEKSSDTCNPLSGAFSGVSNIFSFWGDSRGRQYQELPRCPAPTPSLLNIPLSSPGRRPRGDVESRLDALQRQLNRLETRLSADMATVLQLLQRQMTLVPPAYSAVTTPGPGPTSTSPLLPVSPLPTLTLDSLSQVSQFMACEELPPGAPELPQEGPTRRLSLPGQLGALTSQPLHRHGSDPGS

Turning to `C[C@@H]1Cc2cc(N3CCN(C[C@H]4CN(c5ccc(C#N)c6ncccc56)C[C@@H](C)O4)CC3)ncc2CN1` (single isomer, unassigned) [Example 70], the pIC50 is below 4.70, the concentration for an effect of 20% (IC20) is above 10 µM, the “hERG IC20 / TLR8 IC50” value is on record as above 2439.0 and the “hERG IC20 / TLR7 IC50” value is on record as above 390.6. In addition, the “hERG IC20 / TLR9 IC50” value is reported as above 120.91.
With `C[C@@H]1CN(c2ccc(C#N)c3ncccc23)C[C@H](CN2CCN(c3cc4c(cn3)CCN[C@@H]4C)CC2)O1` (single isomer, unassigned) [Example 74], the pIC50 is below 4.70, the IC20 was above 10 µM, the “hERG IC20 / TLR8 IC50” value is on record as above 2857.1 and the “hERG IC20 / TLR7 IC50” value is on record as above 1470.6. Besides, the “hERG IC20 / TLR9 IC50” value was above 112.1.
With `C[C@@H]1CN(c2ccc(C#N)c3ncccc23)C[C@H](CN2CCN(c3cc4c(cn3)C[C@H](C)NC4)CC2)O1` (single isomer, unassigned) [Example 76], the negative-log IC50 (pIC50) was below 4.70, the IC20 is above 10 µM, the “hERG IC20 / TLR8 IC50” value is reported as above 1960.8 and the “hERG IC20 / TLR7 IC50” value is on record as above 714.3. The “hERG IC20 / TLR9 IC50” value is listed as above 102.7.
Turning to `C[C@@H]1Cc2cnc(N3CCN(C[C@H]4CN(c5ccc(C#N)c6ncccc56)C[C@@H](C)O4)CC3)cc2CN1` (single isomer, unassigned) [Example 77], the negative logarithm of the IC50 (pIC50) is below 4.70, the IC20 is above 10 µM, the “hERG IC20 / TLR8 IC50” value is above 1515.2 and the “hERG IC20 / TLR7 IC50” value is listed as above 885.0. Also, the “hERG IC20 / TLR9 IC50” value is recorded as above 86.9.
As to `C[C@@H]1CN(c2ccc(C#N)c3ncccc23)C[C@H](CN2CCN(c3ccc4c(c3)CCNC4)CC2)O1` [Example 5, 5-[(2R,6S)-2-methyl-6-[[4-(1,2,3,4-tetrahydroisoquinolin-6-yl)piperazin-1-yl]methyl]morpholin-4-yl]quinoline-8-carbonitrile], the negative-log IC50 (pIC50) is below 4.70, the IC20 is above 10 µM, the “hERG IC20 / TLR8 IC50” value is recorded as above 497.5 and the “hERG IC20 / TLR7 IC50” value is recorded as above 320.5. Moreover, the “hERG IC20 / TLR9 IC50” value was above 156.0.
As for `C[C@@H]1CN(c2ccc(C#N)c3ncccc23)C[C@H](CN2CCN(c3ccc4c(c3)CNC4)CC2)O1` [Example 7, 5-[(2S,6R)-2-[(4-isoindolin-5-ylpiperazin-1-yl)methyl]-6-methyl-morpholin-4-yl] quinoline-8-carbonitrile], the negative logarithm of the IC50 (pIC50) was below 4.70, the IC20 was 5.74 µM, the “hERG IC20 / TLR8 IC50” value stood at 194.6 and the “hERG IC20 / TLR7 IC50” value is given as 146.5. In addition, the “hERG IC20 / TLR9 IC50” value was 64.5.
Turning to `C[C@@H]1CN(c2ccc(C#N)c3ncsc23)C[C@H](CN2CCN(c3cnc4c(c3)CNC4)CC2)O1` [Example 8, 7-[(2S,6R)-2-[[4-(6,7-dihydro-5H-pyrrolo[3,4-b]pyridin-3-yl)piperazin-1-yl]methyl]-6-methyl-morpholin-4-yl]-1,3-benzothiazole-4-carbonitrile], the pIC50 is below 4.70, the IC20 was above 10 µM, the “hERG IC20 / TLR8 IC50” value is listed as above 3333.3 and the “hERG IC20 / TLR7 IC50” value is recorded as above 1020.4. Also, the “hERG IC20 / TLR9 IC50” value is above 207.5.
On the same counts, the results for `C[C@@H]1CN(c2ccc(C#N)c3ncccc23)C[C@H](CN2CCN(c3ccc4c(n3)CCNC4)CC2)O1` [Example 14, 5-[(2R,6S)-2-methyl-6-[[4-(5,6,7,8-tetrahydro-1,6-naphthyridin-2-yl)piperazin-1-yl]methyl]morpholin-4-yl]quinoline-8-carbonitrile] are below 4.70, 7.07 µM, 1725.4, 673.7 and 122.8.
For the molecule `C[C@@H]1CN(c2ccc(C#N)c3ncccc23)C[C@H](CN2CCN(c3ccc4c(c3)CN(CCO)C4)CC2)O1` [Example 16, 5-[(2S,6R)-2-[[4-[2-(2-hydroxyethyl)isoindolin-5-yl]piperazin-1-yl]methyl]-6-methyl-morpholin-4-yl]quinoline-8-carbonitrile], the negative logarithm of the IC50 (pIC50) is below 4.70, the 20% effect concentration (IC20) is above 10 µM, the “hERG IC20 / TLR8 IC50” value was above 1000.0 and the “hERG IC20 / TLR7 IC50” value was above 490.2. Moreover, the “hERG IC20 / TLR9 IC50” value was above 110.4.
Take `C[C@@H]1CN(c2ccc(C#N)c3ncccc23)C[C@H](CN2CCN(c3cc4c(cn3)CNCC4)CC2)O1` [Example 19, 5-[(2R,6S)-2-methyl-6-[[4-(5,6,7,8-tetrahydro-2,7-naphthyridin-3-yl)piperazin-1-yl]methyl]morpholin-4-yl]quinoline-8-carbonitrile]: the pIC50 was below 4.70, the 20% effect concentration (IC20) is above 10 µM, the “hERG IC20 / TLR8 IC50” value is above 2283.1 and the “hERG IC20 / TLR7 IC50” value is above 1118.6. Moreover, the “hERG IC20 / TLR9 IC50” value is on record as above 158.3.
For the molecule `C[C@@H]1CN(c2ccc(C#N)c3ncccc23)C[C@H](CN2CCN(c3cc4c(cn3)CCNC4)CC2)O1` [Example 20, 5-[(2R,6S)-2-methyl-6-[[4-(5,6,7,8-tetrahydro-2,6-naphthyridin-3-yl)piperazin-1-yl]methyl]morpholin-4-yl]quinoline-8-carbonitrile], the pIC50 was below 4.70, the IC20 is above 10 µM, the “hERG IC20 / TLR8 IC50” value is recorded as above 1666.7 and the “hERG IC20 / TLR7 IC50” value is recorded as above 1298.7. For the same molecule, the “hERG IC20 / TLR9 IC50” value is above 139.1.
Consider `C[C@@H]1CN(c2ccc(C#N)c3ncccc23)C[C@H](CN2CCN(c3cnc4c(c3)CNCC4)CC2)O1` [Example 21, 5-[(2R,6S)-2-methyl-6-[[4-(5,6,7,8-tetrahydro-1,6-naphthyridin-3-yl)piperazin-1-yl]methyl]morpholin-4-yl]quinoline-8-carbonitrile], for which the pIC50 is below 4.70, the IC20 is above 10 µM, the “hERG IC20 / TLR8 IC50” value is above 1098.9 and the “hERG IC20 / TLR7 IC50” value is on record as above 900.9. Besides, the “hERG IC20 / TLR9 IC50” value is on record as above 193.8.
For the molecule `C[C@@H]1CN(c2ccc(C#N)c3ncccc23)C[C@H](CN2CCN(c3ccc4c(c3)C(O)CNC4)CC2)O1` (stereo partly drawn) [Example 22, 5-[(2S,6R)-2-[[4-(4-hydroxy-1,2,3,4-tetrahydroisoquinolin-6-yl)piperazin-1-yl]methyl]-6-methyl-morpholin-4-yl]quinoline-8-carbonitrile], the pIC50 is below 4.70, the 20% effect concentration (IC20) was above 10 µM, the “hERG IC20 / TLR8 IC50” value was above 520.8 and the “hERG IC20 / TLR7 IC50” value is reported as above 259.7. In addition, the “hERG IC20 / TLR9 IC50” value is on record as above 222.7.
Consider `C[C@@H]1CN(c2ccc(C#N)c3ncccc23)C[C@H](CN2CCN(c3cnc4c(c3)CCNC4)CC2)O1` [Example 23, 5-[(2R,6S)-2-methyl-6-[[4-(5,6,7,8-tetrahydro-1,7-naphthyridin-3-yl)piperazin-1-yl]methyl]morpholin-4-yl]quinoline-8-carbonitrile], for which the pIC50 is below 4.70, the IC20 was above 10 µM, the “hERG IC20 / TLR8 IC50” value is recorded as above 934.6 and the “hERG IC20 / TLR7 IC50” value is above 170.6. Besides, the “hERG IC20 / TLR9 IC50” value is listed as above 170.1.
In the case of `C[C@@H]1CN(c2ccc(C#N)c3nccnc23)C[C@H](CN2CCN(c3cnc4c(c3)CNC4)CC2)O1` [Example 25, 8-[(2S,6R)-2-[[4-(6,7-dihydro-5H-pyrrolo[3,4-b]pyridin-3-yl)piperazin-1-yl]methyl]-6-methyl-morpholin-4-yl] quinoxaline-5-carbonitrile], the pIC50 is below 4.70, the concentration for an effect of 20% (IC20) is above 10 µM, the “hERG IC20 / TLR8 IC50” value is reported as above 584.8 and the “hERG IC20 / TLR7 IC50” value is above 520.8. Besides, the “hERG IC20 / TLR9 IC50” value is reported as above 111.7.
Regarding `C[C@@H]1CN(c2ccc(C#N)c3ncccc23)C[C@H](CN2CCN(c3ccc4c(n3)CNC4)CC2)O1` [Example 30, 5-[(2S,6R)-2-[[4-(6,7-dihydro-5H-pyrrolo[3,4-b]pyridin-2-yl)piperazin-1-yl]methyl]-6-methyl-morpholin-4-yl] quinoline-8-carbonitrile], the negative-log IC50 (pIC50) is below 4.70, the IC20 was above 10 µM, the “hERG IC20 / TLR8 IC50” value is reported as above 1515.2 and the “hERG IC20 / TLR7 IC50” value was above 840.3. Also, the “hERG IC20 / TLR9 IC50” value is recorded as above 246.3.
As for `CC1NCc2ncc(N3CCN(C[C@H]4CN(c5ccc(C#N)c6ncccc56)C[C@@H](C)O4)CC3)cc21` (stereo partly drawn) [Example 41, 5-[(2R,6S)-2-methyl-6-[[4-(5-methyl-6,7-dihydro-5H-pyrrolo[3,4-b]pyridin-3-yl)piperazin-1-yl]methyl]morpholin-4-yl]quinoline-8-carbonitrile], the negative logarithm of the IC50 (pIC50) is below 4.70, the IC20 was above 10 µM, the “hERG IC20 / TLR8 IC50” value was above 574.7 and the “hERG IC20 / TLR7 IC50” value is above 354.6. For the same molecule, the “hERG IC20 / TLR9 IC50” value was above 166.7.

These data come from patent publication EP3807270B1, “NOVEL HETEROARYL HETEROCYCLYL COMPOUNDS FOR THE TREATMENT OF AUTOIMMUNE DISEASE” (F. Hoffmann-La Roche AG, priority 2018, dated 2019).
